# According to US20220220128A1, “HETEROCYCLIC COMPOUNDS AS KINASE INHIBITORS, COMPOSITIONS COMPRISING THE HETEROCYCLIC COMPOUND, AND METHODS OF USE THEREOF” (JS Innopharm (Shanghai) Ltd, priority 2019, published 2022):
# Where two headings read alike, the source gives them in different places.
# Columns and labels:
# human RET kinase = target: T1, human RET kinase (Homo sapiens, UniProt P07949); test: RET Kinase Assay (LanthaScreen TR-FRET enzymatic assay); assay type: biochemical; settings: 7 nM RET, 23 μM ATP
# T1 construct: purchased Carna 08-159
# In short: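 TR-FRET enzymatic read-out using 23 μM ATP, 3 μM FAM-P2 substrate and 7 nM human RET, after 15-min compound pretreatment at room temperature and a 1 h reaction at 28° C in HEPES pH 7.5 buffer. Percent of DMSO control fitted to nonlinear sigmoid curves for IC50.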
# human KDR kinase = target: T2, human KDR kinase (Homo sapiens, UniProt P35968); test: KDR Kinase Assay (LanthaScreen TR-FRET enzymatic assay); assay type: biochemical; settings: 1.2 nM KDR, 92 μM ATP
# T2 construct: purchased Carna 08-191
# In short: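 TR-FRET enzymatic format: after 15-min room-temperature compound pretreatment, 1.2 nM human KDR phosphorylated 3 μM FAM-P22 with 92 μM ATP (HEPES pH 7.5, 28° C., one hour). Reactions were quenched with EDTA buffer. IC50 came from nonlinear sigmoid fits of percent-of-vehicle signal ratios.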
# TT cells = test: TT Cell Proliferation Assay (WST-8, 8 days); assay type: cell-based; settings: Homo sapiens, 192 h, growth inhibition in TT cells, read-out: TT Cellular Activity
# In short: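 IC50 was derived from absorbance at 450 nm after 5 h with WST-8, following 8 days' incubation at 37 °C. Final compound levels spanned 0.0005–5 μM in 0.5% DMSO. TT cells were seeded at 6,000 per well in 10% FBS RPMI-1640 and left to attach for 24 h beforehand.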
# T2 sequence (P35968 20-1356): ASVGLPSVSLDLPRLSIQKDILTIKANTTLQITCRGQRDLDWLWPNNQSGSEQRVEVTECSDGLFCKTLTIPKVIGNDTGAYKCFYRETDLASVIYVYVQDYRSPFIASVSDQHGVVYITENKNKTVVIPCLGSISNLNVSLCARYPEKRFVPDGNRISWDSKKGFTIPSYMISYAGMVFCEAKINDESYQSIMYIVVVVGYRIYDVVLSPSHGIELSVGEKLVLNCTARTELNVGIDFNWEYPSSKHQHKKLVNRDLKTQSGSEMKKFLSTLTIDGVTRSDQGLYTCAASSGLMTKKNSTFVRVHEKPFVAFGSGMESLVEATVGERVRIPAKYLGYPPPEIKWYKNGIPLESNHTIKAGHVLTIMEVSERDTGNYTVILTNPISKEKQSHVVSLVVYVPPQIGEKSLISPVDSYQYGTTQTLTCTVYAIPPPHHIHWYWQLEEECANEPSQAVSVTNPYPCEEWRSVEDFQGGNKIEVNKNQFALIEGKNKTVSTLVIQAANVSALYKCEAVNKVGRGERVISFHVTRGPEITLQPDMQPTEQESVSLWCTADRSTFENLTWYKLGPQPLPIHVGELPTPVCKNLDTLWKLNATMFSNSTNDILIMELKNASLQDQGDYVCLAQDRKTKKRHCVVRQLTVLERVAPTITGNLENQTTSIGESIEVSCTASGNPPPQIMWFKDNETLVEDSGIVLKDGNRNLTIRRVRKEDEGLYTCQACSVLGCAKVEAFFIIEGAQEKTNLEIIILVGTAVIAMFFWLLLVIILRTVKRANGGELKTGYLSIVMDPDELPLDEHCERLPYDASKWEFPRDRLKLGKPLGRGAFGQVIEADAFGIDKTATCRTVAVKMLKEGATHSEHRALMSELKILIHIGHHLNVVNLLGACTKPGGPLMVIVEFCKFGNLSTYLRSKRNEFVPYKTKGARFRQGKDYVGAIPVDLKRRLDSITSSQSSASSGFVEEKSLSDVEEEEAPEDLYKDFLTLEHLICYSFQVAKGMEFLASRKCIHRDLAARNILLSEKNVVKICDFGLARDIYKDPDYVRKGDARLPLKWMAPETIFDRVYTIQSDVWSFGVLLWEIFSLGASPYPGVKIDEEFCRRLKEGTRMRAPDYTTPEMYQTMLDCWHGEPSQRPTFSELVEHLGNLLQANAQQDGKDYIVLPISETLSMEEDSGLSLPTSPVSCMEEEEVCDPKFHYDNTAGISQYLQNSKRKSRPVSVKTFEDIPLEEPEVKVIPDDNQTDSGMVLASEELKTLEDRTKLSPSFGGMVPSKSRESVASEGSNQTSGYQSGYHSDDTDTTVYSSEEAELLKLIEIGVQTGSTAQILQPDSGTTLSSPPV
# T1 sequence (P07949 29-1114): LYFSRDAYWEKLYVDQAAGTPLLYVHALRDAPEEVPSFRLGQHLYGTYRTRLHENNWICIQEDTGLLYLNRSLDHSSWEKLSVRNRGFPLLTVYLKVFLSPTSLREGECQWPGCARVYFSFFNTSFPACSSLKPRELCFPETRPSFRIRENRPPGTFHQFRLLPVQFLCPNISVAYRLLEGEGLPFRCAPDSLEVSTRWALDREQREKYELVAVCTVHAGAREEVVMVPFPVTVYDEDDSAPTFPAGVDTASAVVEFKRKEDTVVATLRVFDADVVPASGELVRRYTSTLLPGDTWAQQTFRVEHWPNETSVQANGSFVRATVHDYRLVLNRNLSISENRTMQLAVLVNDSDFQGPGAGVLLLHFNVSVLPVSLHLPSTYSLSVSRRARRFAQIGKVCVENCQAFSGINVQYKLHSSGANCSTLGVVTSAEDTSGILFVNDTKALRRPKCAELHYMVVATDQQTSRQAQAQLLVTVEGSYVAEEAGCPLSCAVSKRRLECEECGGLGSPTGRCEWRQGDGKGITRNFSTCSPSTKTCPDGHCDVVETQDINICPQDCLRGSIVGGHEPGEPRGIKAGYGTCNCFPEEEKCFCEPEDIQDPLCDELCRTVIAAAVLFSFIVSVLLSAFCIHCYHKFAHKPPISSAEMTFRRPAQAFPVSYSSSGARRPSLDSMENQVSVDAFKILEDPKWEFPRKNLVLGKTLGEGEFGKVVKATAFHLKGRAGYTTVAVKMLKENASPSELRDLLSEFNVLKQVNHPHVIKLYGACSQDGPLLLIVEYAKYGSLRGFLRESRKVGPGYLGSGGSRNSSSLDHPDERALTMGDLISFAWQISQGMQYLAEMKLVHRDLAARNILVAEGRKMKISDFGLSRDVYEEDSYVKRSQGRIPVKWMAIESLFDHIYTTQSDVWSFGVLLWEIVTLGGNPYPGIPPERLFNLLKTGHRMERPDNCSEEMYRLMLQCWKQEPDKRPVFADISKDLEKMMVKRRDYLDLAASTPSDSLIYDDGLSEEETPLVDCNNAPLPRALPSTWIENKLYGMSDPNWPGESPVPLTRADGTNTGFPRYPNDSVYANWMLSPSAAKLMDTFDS
IC50 (human RET kinase),IC50 (human KDR kinase),SMILES,IC50 (TT cells; TT),IC50 (TT cells)
≤ 10 nM,10 to 50 nM,"Cn1cc(-c2cc(-c3ccc(N4C[C@@H]5[C@@H](CNC(=O)C(C)(C)C)[C@@H]5C4)nc3)c3c(C#N)cnn3c2)cn1 [Example 87, N-(((1R,5S,6s)-3-(5-(3-cyano-6-(1-methyl-1H-pyrazol-4-yl)pyrazolo[1,5-a]pyridin-4-yl)pyridin-2-yl)-3-azabicyclo[3.1.0]hexan-6-yl)methyl)pivalamid]",≤ 10 nM,
10 to 50 nM,> 100 nM,"CC(C)(O)COc1cc(-c2ccc(N3C[C@@H]4[C@H](C3)[C@H]4NC(=O)[C@H](O)c3ccccc3)nc2)c2c(C#N)cnn2c1 [Example 40, (R)-N-((1R,5S,6s)-3-(5-(3-cyano-6-(2-hydroxy-2-methylpropoxy)pyrazolo[1,5-a]pyridin-4-yl)pyridin-2-yl)-3-azabicyclo[3.1.0]hexan-6-yl)-2-hydroxy-2-phenylacetamide]",50 to 100 nM,
≤ 10 nM,≤ 10 nM,"Cn1cc(-c2cc(-c3ccc(N4C[C@@H]5[C@H](CNC(=O)OC(C)(C)C)[C@@H]5C4)nc3)c3c(C#N)cnn3c2)cn1 [Example 72, tert-butyl (((1R,5S,6r)-3-(5-(3-cyano-6-(1-methyl-1H-pyrazol-4-yl)pyrazolo[1,5-a]pyridin-4-yl)pyridin-2-yl)-3-azabicyclo[3.1.0]hexan-6-yl)methyl)carbamate]",≤ 10 nM,
≤ 10 nM,50 to 100 nM,"CCOc1cc(-c2ccc(N3C[C@@H]4C[C@@](C)(NC(=O)c5cc(F)ccc5Cl)C[C@@H]4C3)nc2)c2c(C#N)cnn2c1 [Example 68, 2-chloro-N-((3aR,5s,6aS)-2-(5-(3-cyano-6-ethoxypyrazolo[1,5-a]pyridin-4-yl)pyridin-2-yl)-5-methyloctahydrocyclopenta[c]pyrrol-5-yl)-5-fluorobenzamide]",10 to 50 nM,
≤ 10 nM,≤ 10 nM,"COc1ccc(NC(=O)N[C@H]2[C@@H]3CN(c4ccc(-c5cc(-c6cnn(C)c6)cn6ncc(C#N)c56)cn4)C[C@@H]32)cn1 [Example 45, 1-((1R,5S,6s)-3-(5-(3-cyano-6-(1-methyl-1H-pyrazol-4-yl)pyrazolo[1,5-a]pyridin-4-yl)pyridin-2-yl)-3-azabicyclo[3.1.0]hexan-6-yl)-3-(6-methoxypyridin-3-yl)urea]",50 to 100 nM,
10 to 50 nM,10 to 50 nM,"Cn1ccc(-c2cc(-c3ccc(N4C[C@@H]5CN(S(=O)(=O)c6c(F)cccc6Cl)C[C@@H]5C4)nc3)c3c(C#N)cnn3c2)n1 [Example 179, 4-(6-((3aR,6aS)-5-((2-chloro-6-fluorophenyl)sulfonyl)hexahydropyrrolo[3,4-c]pyrrol-2(1H)-yl)pyridin-3-yl)-6-(1-methyl-1H-pyrazol-3-yl)pyrazolo[1,5-a]pyridine-3-carbonitrile]",≤ 10 nM,
≤ 10 nM,10 to 50 nM,"Cn1cc(-c2cc(-c3ccc(N4C[C@@H]5[C@@H](CNS(=O)(=O)c6c(F)cccc6Cl)[C@@H]5C4)nc3)c3c(C#N)cnn3c2)cn1 [Example 74, 2-chloro-N-(((1R,5S,6r)-3-(5-(3-cyano-6-(1-methyl-H-pyrazol-4-yl)pyrazolo[1,5-a]pyridin-4-yl)pyridin-2-yl)-3-azabicyclo[3.1.0]hexan-6-yl)methyl)-6-fluorobenzenesulfonamide]",10 to 50 nM,
≤ 10 nM,10 to 50 nM,"CC(C)(O)COc1cc(-c2ccc(N3C[C@@H]4CN(S(=O)(=O)c5c(F)cccc5Cl)C[C@@H]4C3)nc2)c2c(C#N)cnn2c1 [Example 92, 4-(6-((3aR,6aS)-5-((2-chloro-6-fluorophenyl)sulfonyl)hexahydropyrrolo[3,4-c]pyrrol-2(1H)-yl)pyridin-3-yl)-6-(2-hydroxy-2-methylpropoxy)pyrazolo[1,5-a]pyridine-3-carbonitrile]",10 to 50 nM,
≤ 10 nM,> 100 nM,"CC(C)(O)COc1cc(-c2ccc(N3C[C@@H]4[C@@H](CNC(=O)c5ncccc5Cl)[C@@H]4C3)nc2)c2c(C#N)cnn2c1 [Example 95, 3-chloro-N-(((1R,5S,6s)-3-(5-(3-cyano-6-(2-hydroxy-2-methylpropoxy)pyrazolo[1,5-a]pyridin-4-yl)pyridin-2-yl)-3-azabicyclo[3.1.0]hexan-6-yl)methyl)picolinamide]",10 to 50 nM,
≤ 10 nM,> 100 nM,"CCOc1cc(-c2ccc(N3C[C@H]4CN(C(=O)c5ncccc5Cl)C[C@H]4C3)nc2)c2c(C#N)cnn2c1 [Example 6, 4-(6-((3aR,6aS)-5-(3-chloropicolinoyl)hexahydropyrrolo[3,4-c]pyrrol-2(1H)-yl)pyridin-3-yl)-6-ethoxypyrazolo[1,5-a]pyridine-3-carbonitrile]",10 to 50 nM,
≤ 10 nM,10 to 50 nM,"CC(C)(O)COc1cc(-c2ccc(N3C[C@@H]4C[C@@](C)(NC(=O)c5ncccc5F)C[C@@H]4C3)nc2)c2c(C#N)cnn2c1 [Example 128, N-((3aR,5s,6aS)-2-(5-(3-cyano-6-(2-hydroxy-2-methylpropoxy)pyrazolo[1,5-a]pyridin-4-yl)pyridin-2-yl)-5-methyloctahydrocyclopenta[c]pyrrol-5-yl)-3-fluoropicolinamide]",10 to 50 nM,
≤ 10 nM,> 100 nM,"CCOc1cc(-c2cnc(N3C[C@H]4C[C@H](NC(=O)c5ncccc5Cl)C[C@H]4C3)cn2)c2c(C#N)cnn2c1 [Example 50, 3-chloro-N-((3aR,5s,6aS)-2-(5-(3-cyano-6-ethoxypyrazolo[1,5-a]pyridin-4-yl)pyrazin-2-yl)octahydrocyclopenta[c]pyrrol-5-yl)picolinamide]",10 to 50 nM,
≤ 10 nM,10 to 50 nM,"Cn1ccc(-c2cc(-c3ccc(N4C[C@@H]5C[C@@](C)(NC(=O)c6c(F)cccc6Cl)C[C@@H]5C4)nc3)c3c(C#N)cnn3c2)n1 [Example 93, 2-chloro-N-((3aR,5s,6aS)-2-(5-(3-cyano-6-(1-methyl-1H-pyrazol-3-yl)pyrazolo[1,5-a]pyridin-4-yl)pyridin-2-yl)-5-methyloctahydrocyclopenta[c]pyrrol-5-yl)-6-fluorobenzamide]",10 to 50 nM,
≤ 10 nM,10 to 50 nM,"Cn1ccc(-c2cc(-c3cnc(N4C[C@@H]5C[C@@](C)(NC(=O)c6ncccc6F)C[C@@H]5C4)cn3)c3c(C#N)cnn3c2)n1 [Example 140, N-((3aR,5s,6aS)-2-(5-(3-cyano-6-(1-methyl-1H-pyrazol-3-yl)pyrazolo[1,5-a]pyridin-4-yl)pyrazin-2-yl)-5-methyloctahydrocyclopenta[c]pyrrol-5-yl)-3-fluoropicolinamide]",10 to 50 nM,

SMILES,IC50 (human RET kinase),IC50 (human KDR kinase),IC50 (TT cells; TT),IC50 (TT cells)
"Cn1cc(-c2cc(-c3ccc(N4C[C@@H]5[C@H](C4)[C@H]5NC(=O)[C@H](O)c4ccccc4)nc3)c3c(C#N)cnn3c2)cn1 [Example 18, (R)-N-((1R,5S,6s)-3-(5-(3-cyano-6-(1-methyl-1H-pyrazol-4-yl)pyrazolo[1,5-a]pyridin-4-yl)pyridin-2-yl)-3-azabicyclo[3.1.0]hexan-6-yl)-2-hydroxy-2-phenylacetamide]",≤ 10 nM,10 to 50 nM,,10 to 50 nM
